Assay results taken from article PMC3344910 (Bioorganic & medicinal chemistry, 2012).
Where two headings read alike, the source gives them in different places.

What was measured:
KOP receptors [1] = target: T1, KOP receptors (Homo sapiens, UniProt P41145); conditions: compared to 1 ref 48; cited from earlier work
KOP receptors [2] = target: T1, KOP receptors; conditions: compared to 2 (U50,488) ref 32; cited from earlier work
KOP receptors [3] = target: T1, KOP receptors; assay: biochemical; assay type: biochemical
human MOP receptor = human MOP receptor (Homo sapiens, UniProt P35372); assay: biochemical; assay type: binding
Sequence of human MOP receptor (P35372 whole entry): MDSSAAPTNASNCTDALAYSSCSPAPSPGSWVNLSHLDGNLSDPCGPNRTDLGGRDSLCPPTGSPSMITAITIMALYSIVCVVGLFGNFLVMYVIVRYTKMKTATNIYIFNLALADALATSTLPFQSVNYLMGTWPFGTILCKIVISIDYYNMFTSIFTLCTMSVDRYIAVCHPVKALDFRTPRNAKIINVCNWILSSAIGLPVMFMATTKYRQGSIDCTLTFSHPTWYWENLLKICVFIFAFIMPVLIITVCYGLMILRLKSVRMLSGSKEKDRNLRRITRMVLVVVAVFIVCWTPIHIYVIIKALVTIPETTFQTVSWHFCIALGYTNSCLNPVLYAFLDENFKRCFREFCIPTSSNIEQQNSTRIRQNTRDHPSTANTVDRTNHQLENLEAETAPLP

human DOP receptor = human DOP receptor (Homo sapiens, UniProt P41143); assay: biochemical; assay type: binding
Sequence of human DOP receptor (P41143 whole entry): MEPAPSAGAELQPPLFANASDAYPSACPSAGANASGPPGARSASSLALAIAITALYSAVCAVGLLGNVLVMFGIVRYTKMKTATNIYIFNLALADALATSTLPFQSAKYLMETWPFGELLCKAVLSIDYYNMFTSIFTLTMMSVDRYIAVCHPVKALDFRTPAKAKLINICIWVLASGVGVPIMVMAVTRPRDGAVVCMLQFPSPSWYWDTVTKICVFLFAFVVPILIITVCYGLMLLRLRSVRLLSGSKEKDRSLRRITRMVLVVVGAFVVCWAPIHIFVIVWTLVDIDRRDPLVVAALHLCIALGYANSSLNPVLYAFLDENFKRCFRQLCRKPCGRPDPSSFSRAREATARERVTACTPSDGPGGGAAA

KOP receptors [4] = target: T1, KOP receptors; assay: biochemical; assay type: binding
KOP receptors [5] = target: T1, KOP receptors; conditions: read-out: KOP Ki, previous report; cited from earlier work
KOP receptors [6] = target: T1, KOP receptors; assay type: cell-based

T1 sequence (P41145 whole entry): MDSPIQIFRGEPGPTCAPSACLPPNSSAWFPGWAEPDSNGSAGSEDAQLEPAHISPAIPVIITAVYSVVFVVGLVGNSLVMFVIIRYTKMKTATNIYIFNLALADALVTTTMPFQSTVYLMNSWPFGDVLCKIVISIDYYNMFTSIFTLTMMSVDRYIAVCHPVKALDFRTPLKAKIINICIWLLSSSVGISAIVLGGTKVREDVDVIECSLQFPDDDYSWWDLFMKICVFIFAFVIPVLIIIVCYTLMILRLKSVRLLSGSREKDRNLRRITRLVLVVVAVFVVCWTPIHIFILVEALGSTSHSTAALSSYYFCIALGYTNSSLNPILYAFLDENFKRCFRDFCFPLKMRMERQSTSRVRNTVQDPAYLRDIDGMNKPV

## COC(=O)[C@@H]1C[C@H](OC(C)=O)C(=O)[C@H]2[C@@]1(C)CC[C@H]1C(=O)O[C@@H](c3ccoc3)C[C@]21C [Compound 3, (2R,4aR,6aR,7R,9S,10aS,10bR)-methyl 9-acetoxy-2-(furan-3-yl)-6a,10b-dimethyl-4,10-dioxododecahydro-1H-benzo[f]isochromene-7-carboxylate]
KOP receptors [1]
  Emax, β-arrestin 2 DiscoveRx assay: 126 ± 10
KOP receptors [2]
  Emax, [35S]GTP-γ-S assay, previous report: 73 ± 6
KOP receptors [3]
  less potent than 1 in the [35S]GTP-γ-S assay: 18 fold

## COC(=O)[C@@H]1C[C@H](OC(C)=O)C(=O)[C@H]2[C@@]1(C)CC[C@H]1C(=O)OC(/C=C\c3ccoc3)C[C@]21C (stereo partly drawn) [Compound 9, (4aR,6aR,7R,9S,10aS,10bR)-methyl 9-acetoxy-2-((Z)-2-(furan-3-yl)vinyl)-6a,10b-dimethyl-4,10-dioxododecahydro-1H-benzo[f]isochromene-7-carboxylate]
Human MOP receptor
  Ki: 2600 nM
Human DOP receptor
  Ki: > 10000 nM
Human DOP receptor; read-out: DOP percent of control produced by the 10 μM test drug
  remaining activity at 10 µM: 94%
KOP receptors [3]
  EC50: 1370 nM
KOP receptors [3]; read-out: KOP Emax ± SD, stimulation of [35S]GTP-γ-S binding
  Emax: 105 ± 4%
KOP receptors [4]
  Ki: 30 ± 4 nM
  higher affinity for the KOP receptor compared to trans analogue 8: ~40 fold

## COC(=O)[C@@H]1C[C@H](OC(C)=O)C(=O)[C@H]2[C@@]1(C)CC[C@H]1C(=O)O[C@H](C(=O)c3ccccc3)C[C@]21C [Compound 12, (2S,4aR,6aR,7R,9S,10aS,10bR)-methyl 9-acetoxy-2-benzoyl-6a,10b-dimethyl-4,10-dioxododecahydro-1H-benzo[f]isochromene-7-carboxylate]
KOP receptors [3]
  EC50: 1370 ± 180 nM

## COC(=O)[C@@H]1C[C@H](OC(C)=O)C(=O)[C@H]2[C@@]1(C)CC[C@H]1C(=O)O[C@H](C(=O)c3cccc(C(N)=O)c3)C[C@]21C [Compound 19, (2S,4aR,6aR,7R,9S,10aS,10bR)-methyl 9-acetoxy-2-(3-carbamoylbenzoyl)-6a,10b-dimethyl-4,10-dioxododecahydro-1H-benzo[f]isochromene-7-carboxylate]
KOP receptors [3]
  less potent than 1 in the [35S]GTP-γ-S assay: 18 fold
KOP receptors [4]
  increased KOP affinity compared to 17: approximately 3 fold

## COC(=O)[C@@H]1C[C@H](OC(C)=O)C(=O)[C@H]2[C@@]1(C)CC[C@H]1C(=O)O[C@H](C(=O)c3cccc(C#N)c3)C[C@]21C [Compound 20, (2S,4aR,6aR,7R,9S,10aS,10bR)-methyl 9-acetoxy-2-(3-cyanobenzoyl)-6a,10b-dimethyl-4,10-dioxododecahydro-1H-benzo[f]isochromene-7-carboxylate]
KOP receptors [4]
  decreased KOP affinity compared to 19: 6 fold

## COC(=O)[C@@H]1C[C@H](OC(C)=O)C(=O)[C@H]2[C@@]1(C)CC[C@H]1C(=O)O[C@H](C(=O)c3ccco3)C[C@]21C [Compound 23, (2S,4aR,6aR,7R,9S,10aS,10bR)-methyl 9-acetoxy-2-(furan-2-carbonyl)-6a,10b-dimethyl-4,10-dioxododecahydro-1H-benzo[f]isochromene-7-carboxylate]
KOP receptors [5]
  Ki: > 1000 nM

## COC(=O)[C@@H]1C[C@H](OC(C)=O)C(=O)[C@H]2[C@@]1(C)CC[C@H]1C(=O)O[C@H](C(=O)c3ccsc3)C[C@]21C [Compound 26, (2S,4aR,6aR,7R,9S,10aS,10bR)-methyl 9-acetoxy-6a,10b-dimethyl-4,10-dioxo-2-(thiophene-3-carbonyl)dodecahydro-1H-benzo[f]isochromene-7-carboxylate]
KOP receptors [3]
  more potent than 25 as an agonist in the [35S]GTP-γ-S assay: approximately 3 fold

## C/C=C\C(=O)[C@@H]1C[C@]2(C)[C@H]3C(=O)[C@@H](OC(C)=O)C[C@@H](C(=O)OC)[C@]3(C)CC[C@H]2C(=O)O1 [Compound 30, (2S,4aR,6aR,7R,9S,10aS,10bR)-methyl 9-acetoxy-2-((Z)-but-2-enoyl)-6a,10b-dimethyl-4,10-dioxododecahydro-1H-benzo[f]isochromene-7-carboxylate]
KOP receptors [4]
  decrease in KOP affinity compared to 12: 4 fold

## COC(=O)[C@@H]1C[C@H](OC(C)=O)C(=O)[C@H]2[C@@]1(C)CC[C@H]1C(=O)O[C@H](c3ccco3)C[C@]21C [Compound 31, (2S,4aR,6aR,7R,9S,10aS,10bR)-methyl 9-acetoxy-2-(furan-2-yl)-6a,10b-dimethyl-4,10-di-oxododecahydro-1H-benzo[f]isochromene-7-carboxylate]
KOP receptors [3]
  less potent than 1 in the [35S]GTP-γ-S assay: 3 fold
KOP receptors [4]
  Ki: 8.7 ± 0.4 nM
  increase in affinity at KOP receptors compared to 23: 9 fold
KOP receptors [6]
  decrease in potency compared to 1, Ca2+ mobilization: 2 fold
